From patent publication US9493420B2, “Quinoline derivatives and uses thereof” (Portland State University, priority 2005, dated 2016)

Key:
[1] = test system: Dd2 (CQ^R) P. falciparum strain; assay: In vitro fluorescence (Sybr Green I) growth inhibition assay, Dd2 strain; type: cell-based; details: Plasmodium falciparum, DD2; Table 13; growth inhibition; read-out: IC50 (nM) Dd2 (CQ^R)
Text: One exemplary method for measuring inhibitory effects of RCQ compound in vitro has been reported by Smilkstein et al. (Antimicrob. Agents Chemother., 48(5):1803-1806, 2004). This method employs fluorescent detection of the level of parasitemia in cultured red blood cells and can be automated for high-throughput screening of antimalarial RCQs. This exemplary method allows the inhibitory agent (such as a RCQ) to be in contact with the parasite for an entire developmental cycle without purine starvation, which is in contrast to the traditional ^3H-hypoxanthine method (Desjardins et al., Antimicrob. Agents Chemother., 16(6):710-718, 1979). Briefly, to perform the Smilkstein et al. method, an initial parasitemia of approximately 0.2% is attained by adding uninfected red blood cells (RBCs) to a stock culture of Plasmodium sp.-infected RBCs. […] After a period of incubation (such as about 72 hours), a sufficient amount (e.g., 100 μL) of a fluorescent DNA binding dye-detergent mixture (e.g., Sybr Green I dye-detergent mixture) to lyse cells and bind to DNA is added to the reactions. Because uninfected RBCs have no DNA, only parasite DNA (in infected RBCs) is available for binding to the fluorescent dye (e.g., Sybr Green I). Samples are then incubated in the dark for a period of time (e.g., one hour), followed by measurement of levels of fluorescence. For Sybr Green I, excitation and emission wavelength are 485 and 530 nm, respectively. Fluorescence readings, which represent the amount of parasite DNA in the sample, can be plotted against the Log [drug] and fit to a curve by nonlinear regression to obtain the IC50 value for the tested compound.
An in vitro fluorescence assay for determining IC50 of antimalarial drugs was performed as previously described by Smilkstein et al. (Antimicrob. Agents Chemother., 48(5):1803-1806, 2004). This relatively low-cost procedure can be automated for high-throughput screening of the antimalarial activities of RCQs described herein. Advantageous, this method also allows the tested agent (e.g, a RCQ) to be in contact with the parasite for an entire developmental cycle without purine starvation (which occurs with the commonly used ^3H-hypoxanthine method; see, e.g., Desjardins et al., Antimicrob. Agents Chemother., 16, (6):[…], 1979).
Briefly, an initial parasitemia of approximately 0.2% was attained by addition of uninfected red blood cells to a stock culture of cells infected with Dd2 (CQ^R) or D6 (CQ^S) P. falciparum strains. A 10 mM RCQ_02 solution (in DMSO) was prepared. RCQ_02 (at a final concentration from 10^−11 to 10^−4 M) and infected red blood cells (at a final concentration of 2% (v/v)) were mixed in 100 μL samples in individual wells of a 96-well plate. Each sample was prepared in triplicate. A triplicate set of reactions containing CQ (instead of RCQ_02) was included as a control. After a 72 hour incubation period, Sybr Green I dye-detergent mixture (100 μL) was added to each reaction. The samples were further incubated for an hour in the dark, and then placed in a 96-well fluorescence plate reader (Gemini-EM, […]) and analyzed with excitation and emission wavelength bands at 485 and 530 nm, respectively. Fluorescence readings were plotted against the Log [drug], and curve fitting performed by nonlinear regression to find the IC50 value.

[2] = molecular target: T1, recombinant human serotonin (hSERT) transporter (Homo sapiens, UniProt P31645); assay: Inhibition of [3H]neurotransmitter uptake, hSERT; type: cell-based
T1 construct: expressed in transfected cells; host or cells: HEK cells expressing hSERT
T1 sequence (P31645 whole entry): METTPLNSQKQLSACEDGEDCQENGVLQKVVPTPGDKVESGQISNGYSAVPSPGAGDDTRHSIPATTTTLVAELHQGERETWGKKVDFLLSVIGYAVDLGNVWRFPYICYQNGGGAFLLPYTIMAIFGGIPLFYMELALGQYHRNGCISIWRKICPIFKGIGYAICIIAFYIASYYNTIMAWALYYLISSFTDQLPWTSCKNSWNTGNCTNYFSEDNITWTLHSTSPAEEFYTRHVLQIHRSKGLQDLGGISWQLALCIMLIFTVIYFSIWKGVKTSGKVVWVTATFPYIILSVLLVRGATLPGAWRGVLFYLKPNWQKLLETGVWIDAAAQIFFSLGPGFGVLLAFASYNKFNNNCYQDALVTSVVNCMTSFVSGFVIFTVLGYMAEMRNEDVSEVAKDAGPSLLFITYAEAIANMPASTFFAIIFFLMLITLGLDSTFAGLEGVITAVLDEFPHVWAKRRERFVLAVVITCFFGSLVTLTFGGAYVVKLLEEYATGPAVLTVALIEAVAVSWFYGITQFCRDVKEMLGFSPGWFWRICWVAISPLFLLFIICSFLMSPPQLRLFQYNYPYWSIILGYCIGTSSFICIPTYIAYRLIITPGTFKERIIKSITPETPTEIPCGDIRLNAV
Method: Selected RCQs were tested for inhibition of [^3H]neurotransmitter uptake by the recombinant human serotonin (hSERT), dopamine (HEK-hDAT), and norepinephrine (hNET) transporters by a modification of the method of Eshleman et al. (J. Pharmacol. Exp. Ther., 289(2):877-885, 1999). HEK-hDAT, hSERT, and -hNET expressing cells were grown on tissue culture dishes. After removing the medium and washing the plates with Ca^2+-, Mg^2+-free phosphate buffered saline (PBS), fresh medium was added and the plates were placed in a 25° C. water bath for 5 minutes. Cells were gently lifted from the plates and cell clusters separated by trituration. 50 μL aliquots of the suspended cells were added to assay tubes containing drugs and Krebs-HEPES assay buffer in a final volume of 0.5 mL.
Competition experiments were conducted in triplicate. After a 10 minute preincubation period at 25° C., [^3H]neurotransmitter (20 nM final concentration; [^3H]DA, [^3H]5-HT, or [^3H]NE) were added, and the mixtures incubated for 10 minutes. Reactions were terminated by filtration through Wallac filtermat A filters (presoaked in 0.05% polyethylenimine), using a Tomtec cell harvester. Scintillation fluid was added to each filtered spot, and radioactivity remaining on the filters determined using a Wallac 1205 Betaplate scintillation counter.
Specific uptake was defined as the difference in uptake observed in the absence and presence of 5 μM mazindol (hDAT and hNET) or 5 μM imipramine (hSERT). Inhibition of uptake was determined by non-linear regression using Prism software.

In the case of `CN(CCCNc1ccnc2cc(Cl)ccc12)CCCN1c2ccccc2CCc2ccccc21` [RCQ_02, N′-(7-Chloro-quinolin-4-yl)-N-[3-(10,11-dihydro-dibenzo[b,f]azepin-5-yl)-propyl]-N-methyl-propane-1,3-diamine], the IC50 [1] is reported as 5.3 nM and the IC50 [2] is reported as 230 nM.
